Test results reported in ChEMBL document CHEMBL1201862, “PubChem BioAssay data set” (2004).
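A five-concentration, 48-hour dose response in 96-well plates underlies each endpoint, interpolated linearly between surrounding concentrations. GI50 = concentration required for 50% inhibition of growth.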 Calls of active or inactive are those of the source. No stated cut-off is given here; in the data, active = GI50 up to about 1.1 µM and inactive = higher.

Assays:
Assay in all cases: NCI tumour cell line growth inhibition, 48 h
A549 = tested on: A549
SF-295 = tested on: SF-295
Malme-3M = tested on: Malme-3M
M19-MEL = tested on: M19-MEL
786-0 = tested on: 786-0
HCC 2998 = tested on: HCC 2998
SR = tested on: SR
NCI-H23 = tested on: NCI-H23
OVCAR-3 = tested on: OVCAR-3
UACC-257 = tested on: UACC-257
SF-268 = tested on: SF-268
UO-31 = tested on: UO-31
OVCAR-8 = tested on: OVCAR-8
CAKI-1 = tested on: CAKI-1
SK-MEL-2 = tested on: SK-MEL-2
A498 = tested on: A498
HL-60 = tested on: HL-60
BT-549 = tested on: BT-549
NCI/ADR-RES = tested on: NCI/ADR-RES
DU-145 = tested on: DU-145

N#Cc1cc([N+](=O)[O-])ccc1NC(=O)C(=O)C(C(=O)c1ccc2ccccc2c1)C1OCc2ccccc21 (centres undefined)
GI50 (A549): 10.7 µM (inactive) | GI50 (SF-295): 3.15 µM (inactive) | GI50 (Malme-3M): 8.41 µM (inactive) | GI50 (M19-MEL): 11.8 µM (inactive) | GI50 (786-0): 6.28 µM (inactive) | GI50 (HCC 2998): 10.3 µM (inactive) | GI50 (SR): 2.88 µM (inactive) | GI50 (NCI-H23): 4.5 µM (inactive) | GI50 (OVCAR-3): 3.06 µM (inactive) | GI50 (UACC-257): 9.33 µM (inactive) | GI50 (SF-268): 4.11 µM (inactive) | GI50 (UO-31): 12.8 µM (inactive) | GI50 (OVCAR-8): 5.43 µM (inactive) | GI50 (CAKI-1): 9.4 µM (inactive) | GI50 (SK-MEL-2): 10.9 µM (inactive) | GI50 (A498): 5.56 µM (inactive) | GI50 (HL-60): 12.2 µM (inactive)

CC[C@H]1CN2CCc3cc(OC)c(OC)cc3[C@@H]2C[C@@H]1C[C@H]1NCCc2c1[nH]c1ccc(O)cc21 [TUBULOSINE]
GI50 (A549): < 0.01 µM (active) | GI50 (SF-295): 0.0195 µM (active) | GI50 (BT-549): 0.191 µM (active) | GI50 (Malme-3M): 0.0421 µM (active) | GI50 (M19-MEL): < 0.01 µM (active) | GI50 (786-0): < 0.01 µM (active) | GI50 (HCC 2998): < 0.0105 µM (active) | GI50 (NCI/ADR-RES): 1.73 µM (inactive) | GI50 (SR): < 0.215 µM (active) | GI50 (NCI-H23): < 0.0113 µM (active) | GI50 (OVCAR-3): 0.0276 µM (active) | GI50 (UACC-257): 0.0582 µM (active) | GI50 (SF-268): < 0.0105 µM (active) | GI50 (UO-31): 0.326 µM (active) | GI50 (OVCAR-8): 0.0125 µM (active) | GI50 (DU-145): < 0.01 µM (active) | GI50 (SK-MEL-2): 0.0137 µM (active) | GI50 (A498): 0.0301 µM (active) | GI50 (HL-60): < 0.01 µM (active)

N#CCN1C(=O)c2cccc3cc([N+](=O)[O-])cc(c23)C1=O
GI50 (A549): 40.1 µM (inactive) | GI50 (SF-295): 61.9 µM (inactive) | GI50 (Malme-3M): 33.6 µM (inactive) | GI50 (M19-MEL): 19.8 µM (inactive) | GI50 (786-0): 60.3 µM (inactive) | GI50 (HCC 2998): 44.8 µM (inactive) | GI50 (SR): 5.69 µM (inactive) | GI50 (NCI-H23): 29.5 µM (inactive) | GI50 (OVCAR-3): 29.4 µM (inactive) | GI50 (UACC-257): 24.3 µM (inactive) | GI50 (SF-268): 52 µM (inactive) | GI50 (UO-31): 23.4 µM (inactive) | GI50 (OVCAR-8): 38.9 µM (inactive) | GI50 (SK-MEL-2): 0.745 µM (active) | GI50 (A498): 47.1 µM (inactive) | GI50 (HL-60): 23.8 µM (inactive)

N=S(c1ccccc1)c1ccccc1[N+](=O)[O-] (centres undefined)
GI50 (A549): 16.7 µM (inactive) | GI50 (SF-295): 18.8 µM (inactive) | GI50 (Malme-3M): 15.1 µM (inactive) | GI50 (M19-MEL): 12.3 µM (inactive) | GI50 (786-0): 14.9 µM (inactive) | GI50 (HCC 2998): 19.1 µM (inactive) | GI50 (SR): 18.3 µM (inactive) | GI50 (NCI-H23): 20 µM (inactive) | GI50 (OVCAR-3): 10.6 µM (inactive) | GI50 (UACC-257): 18.1 µM (inactive) | GI50 (SF-268): 19.8 µM (inactive) | GI50 (UO-31): 16 µM (inactive) | GI50 (OVCAR-8): 23.8 µM (inactive) | GI50 (CAKI-1): 13.7 µM (inactive) | GI50 (SK-MEL-2): 29.3 µM (inactive) | GI50 (A498): 34.3 µM (inactive) | GI50 (HL-60): 12.9 µM (inactive)

ClCCN(CC#CCCCC#CCN(CCCl)CCCl)CCCl
GI50 (A549): 8.99 µM (inactive) | GI50 (SF-295): 11.6 µM (inactive) | GI50 (Malme-3M): 14.2 µM (inactive) | GI50 (M19-MEL): 12.1 µM (inactive) | GI50 (786-0): 4.61 µM (inactive) | GI50 (HCC 2998): 18.4 µM (inactive) | GI50 (NCI/ADR-RES): 14.5 µM (inactive) | GI50 (SR): 2.03 µM (inactive) | GI50 (NCI-H23): 6.85 µM (inactive) | GI50 (OVCAR-3): 11.6 µM (inactive) | GI50 (UACC-257): 13.8 µM (inactive) | GI50 (SF-268): 8.85 µM (inactive) | GI50 (UO-31): 25.8 µM (inactive) | GI50 (OVCAR-8): 11 µM (inactive) | GI50 (CAKI-1): 7.67 µM (inactive) | GI50 (SK-MEL-2): 13 µM (inactive) | GI50 (A498): 12.3 µM (inactive) | GI50 (HL-60): 1.26 µM (inactive)

COC1(OC)C2(Cl)C(Cl)=C(Cl)C1(Cl)C1c3ccc(C(C)=O)c4cccc(c34)C12 (centres undefined)
GI50 (A549): 23 µM (inactive) | GI50 (SF-295): 26 µM (inactive) | GI50 (BT-549): 47.6 µM (inactive) | GI50 (Malme-3M): 12.3 µM (inactive) | GI50 (M19-MEL): 25.6 µM (inactive) | GI50 (786-0): 45.7 µM (inactive) | GI50 (HCC 2998): 10.2 µM (inactive) | GI50 (NCI/ADR-RES): 36.6 µM (inactive) | GI50 (SR): 13.7 µM (inactive) | GI50 (NCI-H23): 7.16 µM (inactive) | GI50 (OVCAR-3): 26.3 µM (inactive) | GI50 (UACC-257): 25.6 µM (inactive) | GI50 (SF-268): 61.1 µM (inactive) | GI50 (UO-31): 27.5 µM (inactive) | GI50 (OVCAR-8): 48.6 µM (inactive) | GI50 (DU-145): 26.2 µM (inactive) | GI50 (CAKI-1): > 37.4 µM (inactive) | GI50 (SK-MEL-2): 17.3 µM (inactive) | GI50 (A498): 14.3 µM (inactive) | GI50 (HL-60): 4.42 µM (inactive)

N#CC1(Cc2ccc(N)cc2)c2ccccc2C=CN1C(=O)c1ccccc1 (centres undefined)
GI50 (A549): 35.7 µM (inactive) | GI50 (SF-295): 33 µM (inactive) | GI50 (Malme-3M): 24.4 µM (inactive) | GI50 (M19-MEL): 40.1 µM (inactive) | GI50 (786-0): 50.2 µM (inactive) | GI50 (HCC 2998): > 100 µM (inactive) | GI50 (SR): 24.8 µM (inactive) | GI50 (NCI-H23): 47.1 µM (inactive) | GI50 (OVCAR-3): 43.9 µM (inactive) | GI50 (UACC-257): 39.7 µM (inactive) | GI50 (SF-268): 40.6 µM (inactive) | GI50 (UO-31): 19.8 µM (inactive) | GI50 (OVCAR-8): 40.6 µM (inactive) | GI50 (SK-MEL-2): 9.29 µM (inactive) | GI50 (A498): 40 µM (inactive) | GI50 (HL-60): 15.8 µM (inactive)

S=c1[nH]nc(Cc2ccccc2)c(=S)[nH]1
GI50 (A549): > 69.8 µM (inactive) | GI50 (SF-295): > 59.3 µM (inactive) | GI50 (BT-549): 35.2 µM (inactive) | GI50 (Malme-3M): > 55.6 µM (inactive) | GI50 (M19-MEL): > 100 µM (inactive) | GI50 (786-0): > 100 µM (inactive) | GI50 (HCC 2998): > 45.9 µM (inactive) | GI50 (NCI/ADR-RES): 49.4 µM (inactive) | GI50 (SR): > 65 µM (inactive) | GI50 (NCI-H23): > 64.4 µM (inactive) | GI50 (OVCAR-3): > 61.7 µM (inactive) | GI50 (UACC-257): > 56.8 µM (inactive) | GI50 (SF-268): 4.63 µM (inactive) | GI50 (UO-31): 46.5 µM (inactive) | GI50 (OVCAR-8): > 61.2 µM (inactive) | GI50 (DU-145): 61.9 µM (inactive) | GI50 (CAKI-1): > 54.8 µM (inactive) | GI50 (SK-MEL-2): > 43.1 µM (inactive) | GI50 (A498): > 42.9 µM (inactive) | GI50 (HL-60): > 54.8 µM (inactive)

C/C(=N\NS(=O)(=O)c1ccc(C)cc1)c1c(O)cc(C)oc1=O
GI50 (A549): > 100 µM (inactive) | GI50 (SF-295): > 100 µM (inactive) | GI50 (Malme-3M): > 100 µM (inactive) | GI50 (M19-MEL): > 100 µM (inactive) | GI50 (786-0): > 100 µM (inactive) | GI50 (HCC 2998): > 100 µM (inactive) | GI50 (SR): > 100 µM (inactive) | GI50 (NCI-H23): > 100 µM (inactive) | GI50 (UACC-257): > 100 µM (inactive) | GI50 (SF-268): > 100 µM (inactive) | GI50 (UO-31): > 100 µM (inactive) | GI50 (OVCAR-8): > 100 µM (inactive) | GI50 (CAKI-1): > 100 µM (inactive) | GI50 (SK-MEL-2): > 100 µM (inactive) | GI50 (A498): > 100 µM (inactive) | GI50 (HL-60): > 100 µM (inactive)

CCNCCCCNCCCCNCCCCNCCCCNCC
GI50 (A549): 20.7 µM (inactive) | GI50 (SF-295): 42 µM (inactive) | GI50 (BT-549): > 100 µM (inactive) | GI50 (Malme-3M): 6.49 µM (inactive) | GI50 (M19-MEL): > 100 µM (inactive) | GI50 (786-0): 34.8 µM (inactive) | GI50 (HCC 2998): > 100 µM (inactive) | GI50 (NCI/ADR-RES): > 100 µM (inactive) | GI50 (SR): 56.4 µM (inactive) | GI50 (NCI-H23): 9.08 µM (inactive) | GI50 (OVCAR-3): > 100 µM (inactive) | GI50 (UACC-257): 40.1 µM (inactive) | GI50 (SF-268): 48.8 µM (inactive) | GI50 (UO-31): 53.6 µM (inactive) | GI50 (OVCAR-8): > 100 µM (inactive) | GI50 (DU-145): > 100 µM (inactive) | GI50 (CAKI-1): 10.4 µM (inactive) | GI50 (SK-MEL-2): 48.1 µM (inactive) | GI50 (A498): > 94.2 µM (inactive) | GI50 (HL-60): 9.04 µM (inactive)
